Values joined by “and” are separate entries in the source; they are usually repeats but may differ in a detail not shown here. Equal entries are not always repeated. “Also recorded” adds a separate entry of the source.
How the values were obtained:
[1] = biological target: Nsp3b (SARS-CoV-2 macrodomain) (Severe acute respiratory syndrome coronavirus 2, UniProt P0DTD1); experiment: biochemical; type: binding
CHIKV (OPY1) = experiment: microbe, parasite or virus in culture; type: cell-based; conditions: Chikungunya virus, Vero C1008, 48 h
CHIKV macrodomain [2] = biological target: T1, CHIKV macrodomain (Chikungunya virus, UniProt Q8JUX6); conditions: cited from earlier work
T1 sequence (Q8JUX6 1334-1493 limits assumed): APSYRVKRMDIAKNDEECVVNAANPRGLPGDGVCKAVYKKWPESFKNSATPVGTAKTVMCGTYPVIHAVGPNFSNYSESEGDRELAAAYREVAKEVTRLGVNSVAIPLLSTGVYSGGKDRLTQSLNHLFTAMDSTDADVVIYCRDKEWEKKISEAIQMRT

Nsp3b [3] = biological target: T2, Nsp3b (Severe acute respiratory syndrome coronavirus 2, UniProt P0DTD1); type: biochemical, SARS-CoV-2
[4] = biological target: Rubella virus (RuV) macrodomain (Rubella virus, UniProt Q86500); type: binding
Chain of Rubella virus (RuV) macrodomain (Q86500 806-985 limits assumed): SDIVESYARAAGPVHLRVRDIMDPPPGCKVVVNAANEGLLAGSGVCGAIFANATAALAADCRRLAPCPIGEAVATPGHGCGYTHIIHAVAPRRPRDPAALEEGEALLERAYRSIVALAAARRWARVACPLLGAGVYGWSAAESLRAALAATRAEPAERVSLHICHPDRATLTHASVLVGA

hMacroD2 = hMacroD2 (Homo sapiens, UniProt A1Z1Q3); type: binding
Chain of hMacroD2 (A1Z1Q3 7-243): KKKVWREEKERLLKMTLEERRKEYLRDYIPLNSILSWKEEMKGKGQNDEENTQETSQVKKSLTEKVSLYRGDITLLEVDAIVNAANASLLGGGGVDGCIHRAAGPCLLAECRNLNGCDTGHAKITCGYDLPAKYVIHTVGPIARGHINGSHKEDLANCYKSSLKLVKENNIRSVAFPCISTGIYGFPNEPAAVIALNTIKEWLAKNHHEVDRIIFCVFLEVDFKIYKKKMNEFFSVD

in vitro [5] = conditions: African green monkey
SARS-CoV-2 B.1 = experiment: microbe, parasite or virus in culture; type: cell-based; conditions: for EC50: Severe acute respiratory syndrome coronavirus 2, VeroE6/TMPRSS2, 48 h
SARS-CoV macrodomain = SARS-CoV macrodomain (Severe acute respiratory syndrome coronavirus, UniProt P0C6X7); experiment: biochemical; type: binding
MERS-CoV macrodomain [6] = biological target: T3, MERS-CoV macrodomain (Middle East respiratory syndrome-related coronavirus, UniProt K9N7C7); type: biochemical
T3 sequence (K9N7C7 1110-1276 limits assumed): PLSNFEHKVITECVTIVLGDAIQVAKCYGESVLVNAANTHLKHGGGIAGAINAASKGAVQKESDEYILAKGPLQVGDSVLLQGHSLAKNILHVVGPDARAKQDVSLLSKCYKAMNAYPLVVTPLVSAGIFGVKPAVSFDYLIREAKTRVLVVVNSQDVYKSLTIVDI

CHIKV macrodomain [7] = biological target: T1, CHIKV macrodomain; type: binding
Nsp3b [8] = biological target: T2, Nsp3b; type: binding, SARS-CoV-2
in vitro [9] = conditions: African green monkey; remark: listed apart in the source
MERS-CoV macrodomain [10] = biological target: T3, MERS-CoV macrodomain; experiment: biochemical; type: binding
Nsp3b [11] = conditions: cited from earlier work

With `Nc1ncnc2c1ncn2[C@@H]1O[C@H](COP(=O)(O)OP(=O)(O)O)[C@@H](O)[C@H]1O` [ADP] the Kd [1] was > 10000 µM.
`Nc1ncnc2c1ncn2[C@@H]1O[C@H](COP(=O)(O)O)[C@@H](O)[C@H]1O` [AMP] gave a Kd [1] of 1900 to 2500 µM.
`Nc1ncnc2c1ncn2[C@@H]1O[C@H](COP(=O)(O)OP(=O)(O)NP(=O)(O)O)[C@@H](O)[C@H]1O` [APPNHP] gave a Kd [1] of 1900 to 2500 µM.
`Nc1ncnc2c1ncn2[C@@H]1O[C@H](COP(=O)(O)OP(=O)(O)OP(=O)(O)O)[C@@H](O)[C@H]1O` [ATP] showed a Kd [1] of 1900 to 2500 µM.
In the case of `NC(=O)c1nc(F)c[nH]c1=O` [Favipiravir, reference compound], the EC50 (CHIKV (OPY1)) is reported as 11.3 µM.
In the case of `N#C[C@@]1(c2ccc3c(N)ncnn23)O[C@H](CO)[C@@H](O)[C@H]1O` [GS‐441524], the “interaction with CHIKV macrodomain” value (CHIKV macrodomain [2]) is given as “no significant interaction; also recorded: does not bind detectably” and the “reduction of the k value versus free macrodomain” value (Nsp3b [3]) is given as 33%.
In the case of `N#C[C@@]1(c2ccc3c(N)ncnn23)O[C@H](COP(=O)(O)O)[C@@H](O)[C@H]1O` [RMP], the Kd [1] is reported as ~10 µM.
With `N#C[C@@]1(c2ccc3c(N)ncnn23)O[C@H](COS(N)(=O)=O)[C@@H](O)[C@H]1O` [compound 3] the “interaction by ITC” value [4] was “no interaction was observed”, the “interaction by ITC” value (hMacroD2) was “no interaction was observed; also recorded: no binding was observed” and the pKa (physchem) was 9.37 ± 0.02. For the same compound, the CC50 (in vitro [5]) was > 40 µM, the “inhibition of SARS-CoV-2” value (SARS-CoV-2 B.1) was “no measurable inhibition” and the EC50 (SARS-CoV-2 B.1) was > 40 µM. The ΔG (SARS-CoV macrodomain) was −7.52 kcal mol^–1, the ΔH (SARS-CoV macrodomain) was −12.5 ± 0.3 kcal mol^–1 and the “−TΔS” value (SARS-CoV macrodomain) was 4.96 kcal mol^–1. The Kd (SARS-CoV macrodomain; K D) was 3 µM and 3.08 µM, the “reduction of the k value versus free macrodomain” value (MERS-CoV macrodomain [6]) was 16% and ≈ 16% and the “interaction by ITC” value (CHIKV macrodomain [7]) was “no interaction was observed”. The EC50 (CHIKV (OPY1)) was 21.8 µM, the “reduction of the k value versus free macrodomain” value (Nsp3b [3]) was 47% and the ΔG (Nsp3b [8]) was −8.28 kcal mol^–1. The ΔH (Nsp3b [8]) was −12.00 ± 0.07 and −12.00 kcal mol^–1 and −12.00 and −12.0 ± 0.07 kcal mol^–1, the “ΔH compared to GS-441524” value (Nsp3b [8]) was “–6.75 kcal mol^−1” and the “−TΔS” value (Nsp3b [8]) was 3.71 kcal mol^–1. For the same compound, the CC50 (in vitro [9]) was > 40 µM, the Kd (MERS-CoV macrodomain [10]) was 104 ± 13 µM and the ΔG (MERS-CoV macrodomain [10]) was −5.43 kcal mol^–1.
`CCC(CC)COC(=O)[C@H](C)N[P@](=O)(OC[C@H]1O[C@@](C#N)(c2ccc3c(N)ncnn23)[C@H](O)[C@@H]1O)Oc1ccccc1` [remdesivir, reference compound] gave an EC50 (SARS-CoV-2 B.1) of 5.48 µM.
For ADP‐ribose [ADPr, reference compound], the “reduction of the k value versus free macrodomain” value (MERS-CoV macrodomain [6]) was 32% and ≈ 32%.
In the case of α‐azido‐ADPr, the IC50 (Nsp3b [11]) is given as 0.49 µM.
For β‐O‐methyl‐ADPr, the IC50 (Nsp3b [11]) is given as 127 µM.
